This experiment concerns E. coli flagellar motor / cellular pmf. The class given is cell-based.

Molecules are shown by their SMILES.

Procedure: Cell culture. We expressed the SAR86 γ-proteobacterial PR-variant (Geneart, Inc) in E. coli cells (RP437 DE3 ΔcheY Cm^R) using a T7 based expression system (pET200, Kan^R, Invitrogen). Cells were grown in T broth (1% Tryptone, 0.5% NaCl) supplemented with kanamycin (25 μg/ml). In mid-log phase, PR expression was induced with 1 mM IPTG and the medium was supplemented with 10 μM ethanolic all-trans-retinal. Cells were collected in late log phase by gentle centrifugation (4500×g, 5 min) and carefully resuspended in motility medium (1 mM PBS (Ambion), 0.1 mM EDTA, pH 7.4). PR^+ denotes cells expressing proteorhodopsin, and PR^− denotes cells (RP437 DE3 ΔcheY Cm^R) without the PR plasmid. […] Unless otherwise noted, all experiments were done in glucose free motility medium and at room temperature.
Instrumentation. […]
To increase the accuracy of the flagellar rotation measurements, a tethered cell geometry was employed (FIG. 2A) which permitted the extended observation of the same bacterium in different illumination conditions. PR^+ cells were allowed to stick to the coverslip via a flagellum, and the angular rotation rate of cells was monitored (FIG. 2A). […]

On to `N#CC(C#N)=NNc1cccc(Cl)c1` [CCCP, carbonyl cyanide 3-chlorophenylhydrazone], for which the “Effect on bacterial motility” value (100 μM, low oxygen cultures, not restored with 50 seconds of green illumination) is recorded as “eliminated all bacterial motility”.
In the case of `[N-]=[N+]=[N-]` [azide, sodium azide], the IC50 (without green light, azide 0 to 110 mM, read-out: Azide concentration at which pmf dropped to 50% of its original value) turned out to be 55 mM.

The values are drawn from patent publication US20110256605A1, “CELLS WITH NON-NATURAL PHYSIOLOGIES DERIVED BY EXPRESSING LIGHT-POWERED PROTON PUMPS IN ONE OR MORE MEMBRANES” (The Regents of the University of California, a California …, priority 2010, published 2011).
